Measured values reported in patent US7238710B2, “EP4 receptor agonist, compositions and methods thereof” (Merck Frosst Canada, Ltd., priority 2003, dated 2007).
“Also recorded” adds a separate entry of the source.

Tests used:
[1] = test system: bone tissue (tibia, calvaria); assay: EP4 and EP2 mRNA levels in vivo in bone tissue (Northern blot); set-up: species or system rat
Method: (§1) For mRNA localization experiments, 5-week old Sprague-Dawley rats (Charles River) are euthanized by CO2, their tibiae and calvariae are excised, cleaned of soft tissues and frozen immediately in liquid nitrogen. For EP4 regulation experiments, 6-week old rats are given a single injection of either vehicle (7% ethanol in sterile water) or an anabolic dose of PGE2 (Cayman Chemical, Ann Arbor, Mich.), 3-6 mg/kg in the same vehicle) intraperitoneally. Animals are euthanized at several time points post-injection and their tibiae and calvariae, as well as samples from lung and kidney tissues are frozen in liquid nitrogen.
Total RNA is extracted from the tibial metaphysis or diaphysis and calvaria using a guanidinium isothiocyanate-phenol-chloroform method after pulverizing frozen bone samples by a tissue homogenizer. See P. Chomczynski et al., Single-step method of RNA isolation by acid guanidium thiocyanate-phenol-chloroform extraction., Analyt Biochem, 162, 156-159 (1987), which is incorporated by reference herein in its entirety. RNA samples ([…]) are separated on 0.9% agarose/formaldehyde gels and transferred onto nylon membranes (Boehringer Mannheim, Germany). Membranes are prehybridized in Hybrisol I (Oncor, Gaithersburg, Md.) and 0.5 mg/ml sonicated salmon sperm DNA (Boehringer) at 42° C. for 3 hours and are hybridized at 42° C. with rat EP2 and mouse EP4 cDNA probes labeled with [^32P]dCTP (Amersham, Buckinghamshire, UK) by random priming using the rediprime kit (Amersham). After hybridization, membranes are washed 4 times in 2×SSC+0.1% SDS at room temperature for a total of 1 hour and once with 0.2×SSC+0.1% SDS at 55° C. for 1 hour and then exposed to Kodak XAR 2 film at −70° C. using intensifying screens. After developing the films, bound probes are removed twice with 0.1% SDS at 80° C. and membranes are hybridized with a human GAPDH (Glyceraldehyde 3-Phosphate Dehydrogenase) cDNA probe (purchased from Clontech, Palo Alto, Calif.) for loading control. […]

[2] = test system: ROS 17/2.8 rat osteosarcoma cells; assay: Intracellular cAMP in ROS 17/2.8 cells; assay type: cell-based
Method: (§2) RCT-1 and RCT-3 are clonal cell lines immortalized by SV-40 large T antigen from cells released from fetal rat calvair by a cmbination collagenase/hyaluronidase digestion. RCT-1 cells, derived from cells released during the first 10 minutes of digestion (fraction I), are cultured in RPMI 1640 medium (BRL) with 10% fetal bovine serum and 0.4 mg/ml G418 (BRL). These cells differentiate and express osteoblastic features upon retinoic acid treatment. RCT-3 cells, immortalized from osteoblast-enriched fraction III cells, are cultured in F-12 medium (BRL) with 5% Fetal bovine serum and 0.4 mg/ml G418. TRAB-11 cells are also immortalized by SV40 large T antigen from adult rat tibia and are cultured in RPMI 1640 medium with 10% FBS and 0.4 mg/ml G418. ROS 17/2.8 rat osteosarcoma cells are cultured in F-12 containing 5% FBS. Osteoblast-enriched (fraction III) primary fetal rat calvaria cells are obtained by collagenase/hyaluronidase digestion of calvariae of 19 day-old rat fetuses. See Rodan et al., Growth stimulation of rat calvaria osteoblastic cells by acidic FGF, Endocrinology, 121, 1919-1923 (1987), which is incorporated by reference herein in its entirety. Cells are released during 30-50 minutes digestion (fraction III) and are cultured in F-12 medium containing 5% FBS. […]

RP-1 periosteal cells = assay: EP4 and EP2 mRNA expression (Northern blot) in RP-1 periosteal cells; assay type: cell-based, rat; conditions: RP-1 cells
Method: RP-1 periosteal cells are spontaneously immortalized from primary cultures of periosteal cells from tibae of 4-week old Sprague-Dawley rats and are cultured in DMEM (BRL, Gaithersburg, Md.) with 10% fetal bovine serum (JRH Biosciences, Lenexa, Kans.).
Total RNA is extracted from the tibial metaphysis or diaphysis and calvaria using a guanidinium isothiocyanate-phenol-chloroform method after pulverizing frozen bone samples by a tissue homogenizer. See P. Chomczynski et al., Single-step method of RNA isolation by acid guanidium thiocyanate-phenol-chloroform extraction., Analyt Biochem, 162, 156-159 (1987), which is incorporated by reference herein in its entirety. RNA samples ([…]) are separated on 0.9% agarose/formaldehyde gels and transferred onto nylon membranes (Boehringer Mannheim, Germany). Membranes are prehybridized in Hybrisol I (Oncor, Gaithersburg, Md.) and 0.5 mg/ml sonicated salmon sperm DNA (Boehringer) at 42° C. for 3 hours and are hybridized at 42° C. with rat EP2 and mouse EP4 cDNA probes labeled with [^32P]dCTP (Amersham, Buckinghamshire, UK) by random priming using the rediprime kit (Amersham). After hybridization, membranes are washed 4 times in 2×SSC+0.1% SDS at room temperature for a total of 1 hour and once with 0.2×SSC+0.1% SDS at 55° C. for 1 hour and then exposed to Kodak XAR 2 film at −70° C. using intensifying screens. After developing the films, bound probes are removed twice with 0.1% SDS at 80° C. and membranes are hybridized with a human GAPDH (Glyceraldehyde 3-Phosphate Dehydrogenase) cDNA probe (purchased from Clontech, Palo Alto, Calif.) for loading control.
PGE2 enhances its own production via upregulation of cyclooxygenase 2 expression in osteoblasts and in bone tissue thus autoamplifying its own effects. PGE2 also increases the levels of EP4 mRNA. RP-1 cells are immortalized from a primary culture of adult rat tibia periosteum is examined. These cells express osteoblast phenotypic markers upon confluence and form mineralized bone matrix when implanted in nude mice. […]

RCT-3 cells [3] = assay: EP4 mRNA expression (Northern blot) in RCT-3 cells; assay type: cell-based, rat
Method: as §2

bone marrow cells = assay: In situ hybridization of EP4 mRNA in bone tissue; assay type: in vivo, rat; conditions: rats, single anabolic dose
Method: as §1
Frozen tibiae are sectioned coronally at […] thickness and sections are mounted on charged slides (Probe On Plus, Fisher Scientific, Springfield, N.J.) and are kept at −70° C. until hybridization. cRNA probes are labeled with ^35S-UTPgS (ICN, Costa Mesa, Calif.) using a Riboprobe II kit (Promega Madison, Wis.). Hybridization is performed overnight at 50° C. […]
In situ hybridization is used in order to localize cells expressing EP4 in bone. In control experiment (vehicle-injected) rats, low expression of EP4 is detected in bone marrow cells. […]

TRAB-11 cells = assay: Intracellular cAMP in TRAB-11 cells; assay type: cell-based, rat
Method: as §2

RCT-3 cells [4] = assay: Intracellular cAMP in RCT-3 cells; assay type: cell-based, rat
Method: as §2

[5] = five-week-old male rats, injected 3-6 mg/Kg

With `CCCCC[C@H](O)/C=C/[C@H]1[C@H](O)CC(=O)[C@@H]1C/C=C\CCCC(=O)O` [PGE2] the “EP4 mRNA levels in the tibial diaphysis” value [1, 5] was “rapidly increased”, the “time of peak EP4 mRNA levels in the tibial diaphysis after injection” value [1, 5] was 2 h and the “EP2 mRNA in bone tissue” value ([1]; rats) was “does not induce”. The “effect on intracellular cAMP” value [2] was “no effect”, the “EP2 mRNA” value (RP-1 periosteal cells) was “not expressed; also recorded: does not induce” and the “EP4 mRNA levels” value (RP-1 periosteal cells; 10^-6 M) was “rapidly increases”. For the same molecule, the “time of peak EP4 mRNA levels after treatment” value (RP-1 periosteal cells; 10^-6 M) was 2 h, the “EP4 mRNA levels” value (RCT-3 cells [3]) was “no effect” and the “expression of EP4 in bone marrow cells” value (bone marrow cells) was “increased”. For the same molecule, the “effect on intracellular cAMP” value (TRAB-11 cells) was “markedly induced” and the “effect on intracellular cAMP” value (RCT-3 cells [4]) was “markedly induced”.
